The source of these data is PubChem BioAssay (NCI).

Holding throughout (experiment): inhibition of tumour cell growth, NCI panel, 48 h
Test [1] concerns NCI-H460 lung.
The test system of test [2] is SN12C renal.
The subject of test [3] is ACHN renal.
Test [4] has as its system UACC-257 melanoma.
Test [5] has as its system SK-MEL-28 melanoma.
In test [6] the test system is UACC-62 melanoma.
For test [7], the system named is HL-60(TB) leukemia.
The test system of test [8] is TK-10 renal.
Test [9] relates to NCI-H522 lung.
For test [10], the system named is T-47D breast.

Values joined by “and” are separate entries in the source; they are usually repeats but may differ in a detail not shown here. Equal entries are not always repeated.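 Five compound concentrations were applied to cells in 96-well plates for 48 hours; endpoints were derived by simple linear interpolation of the resulting dose-response curve. GI50 marks 50% less growth. TGI is the concentration that stops growth completely.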

On to `CC[C@@H]1C[C@H]2CC3c4[nH]c5ccc(O)cc5c4CCN(C2)C31`, for which the TGI in test [1], in test [2], in test [3], in test [4], in test [5] and in [6] was more than 100 µM each time. The TGI in test [7] and in [8] was more than 100 µM each time.

Turning to `Cc1nn(-c2nc3ccccc3s2)c2c1C(=O)c1ccccc1-2`, the TGI in test [1], in test [2], in test [3], in [4], in test [9] and in test [5] was more than 100 µM throughout. The TGI in test [6], in test [7] and in test [8] was more than 100 µM throughout.

With `O=C(NC1C2CC3CC(C2)CC1C3)c1cc(/C=C/c2ccccc2)[nH]c(=S)n1` (configuration not stated), the TGI in test [1], in test [3], in test [4], in [9], in test [5] and in test [6] was more than 100 µM each time. Also, the TGI in test [7] and in test [8] was more than 100 µM in each case.

Take `O=C(COC(=O)c1cccc2c(=O)c3ccccc3[nH]c12)Nc1ccccc1`: the TGI in [1] is more than 100 µM; in [2] it was more than 100 µM; in test [3], more than 100 µM; in test [4] it was more than 100 µM; in [9], 73.4 µM; in test [5] it was more than 100 µM. For the same compound, the TGI in test [6] is 68 µM; in [7] it was 36.1 µM; in test [8] it was more than 100 µM.

Turning to `COc1ccc(-c2cc(-c3ccc(O)cc3)nc3n[nH]c(N)c23)cc1`, the GI50 is 21.6 µM in test [1]; 19.2 µM in test [2]; 18 µM in test [10]; 18.2 µM in test [3]; 21.8 µM in [4]; 14.5 µM in [9]. The GI50 in [5] is 33.6 µM; in test [6], 17.2 µM; in test [8] it was 29.8 µM. The TGI in test [1] worked out at 58.2 µM; in test [2] it was 36.5 µM; in [10], 83.5 µM; in [3] it was 87.9 µM; in test [4], 56.9 µM; in [9], 33.6 µM. In addition, the TGI in test [5] is more than 100 µM; in [6] it was 34.5 µM; in [8] it was more than 100 µM.

Turning to `S=c1nc(Cl)cc2[nH]c(Cl)cn12`, the TGI is more than 100 µM in test [1]; more than 100 µM in test [2]; more than 100 µM in test [10]; more than 100 µM in test [3]; more than 100 µM in test [4]; 6.22 µM in test [9]. Moreover, the TGI in [5], in test [6] and in test [8] was more than 100 µM in each case.

For the compound `CCOC(=O)[C@@H](C)C[C@H](Cc1ccccc1)NC(=O)c1csc([C@@H](C[C@H](C(C)C)N(C)C(=O)[C@H](CC)NC(=O)[C@H]2CCCCN2C)OC(C)=O)n1`, the GI50 in test [1] is less than 0.00167 µM; in test [2] it was 0.00515 µM; in [3], 0.00196 µM; in test [4] it was more than 16.7 µM; in test [9], less than 0.00167 µM; in test [6], less than 0.00167 µM. Also, the GI50 in [7] was less than 0.00167 µM. Further, the TGI in [1] was more than 16.7 µM; in [2] it was more than 16.7 µM; in test [3], more than 16.7 µM; in test [4], more than 16.7 µM; in test [9], 0.362 µM; in test [6] it was more than 16.7 µM. In addition, the TGI was 0.0114 µM in [7] and more than 16.7 µM in test [8].

Regarding `COc1ccc(OC(C(=O)O)c2ccccc2)c2c1CCCC2=O` (configuration not stated), the TGI in [1], in test [2], in test [3], in [4], in [9] and in test [5] was more than 100 µM each time. The TGI in [6], in [7] and in test [8] was more than 100 µM throughout.

Regarding `NCCN1C(=O)C2C3c4ccccc4C(c4ccccc43)C2C1=O` (configuration not stated), the TGI in [1], in [2], in test [3], in test [4], in [9] and in test [5] was more than 100 µM in each case. Moreover, the TGI in [6], in test [7] and in test [8] was more than 100 µM each time.

`Cc1nn(C)cc1P(=S)(c1ccccc1)c1ccccc1`: the TGI in test [1], in [2], in test [3], in [4], in [5] and in [6] was more than 100 µM each time. Further, the TGI was 41.7 µM in [7] and more than 100 µM in test [8].

Turning to `CC(C)(C)OC(=O)NC(CO)c1cccc(OCc2ccccc2)c1` (configuration not stated), the TGI was more than 100 µM in [1]; more than 100 µM in test [2]; more than 100 µM in test [3]; 99.4 µM in test [4]; more than 100 µM in [9]; more than 100 µM in test [5]. In addition, the TGI in test [6] was more than 100 µM; in test [7], 43.8 µM; in [8] it was more than 100 µM.

On to `O=C(NCC(O)CNC(=O)C(F)(F)F)C(F)(F)F`, for which the TGI in test [1], in [2], in test [4], in [9], in test [6] and in test [7] was more than 100 µM throughout. In test [8], this compound registered a TGI of more than 100 µM.

Consider `NC(N)=NS(=O)(=O)c1ccc(Nc2c3ccccc3nc3c(C(=O)Nc4ccc(S(N)(=O)=O)cc4)ccc(Cl)c23)cc1`, for which the TGI in [1], in [2], in test [3], in test [4], in [9] and in test [5] was more than 100 µM throughout. Besides, the TGI in test [6], in test [7] and in test [8] was more than 100 µM throughout.

As to `N#C/C(=C/Sc1ccccc1)C(=O)O`, the TGI in [1] is more than 100 µM; in [2], 57.5 µM; in test [3], more than 100 µM; in test [4], more than 100 µM; in test [9], 23.4 µM; in test [5] it was more than 100 µM. Besides, the TGI in test [6], in [7] and in [8] was more than 100 µM each time.

With `N#CCC(=O)N/N=C(\C(=O)Nc1ccc(Cl)c(Cl)c1)C1CN(c2ccccc2)N=C1N` (configuration not stated), the TGI in test [1], in test [2], in [3], in test [4], in test [9] and in [5] was more than 100 µM each time. Besides, the TGI in [6], in [7] and in test [8] was more than 100 µM each time.

With `O=c1oc(=O)c2oc3ccccc3oc1=2`, the TGI in test [1], in [2], in test [3], in test [4], in [9] and in test [5] was more than 100 µM each time. In addition, the TGI in test [6], in [7] and in [8] was more than 100 µM each time.

On to `Clc1cc2n[se]nc2cc1Cl`, for which the TGI in [1], in test [2], in test [3], in test [4], in [5] and in test [6] was more than 100 µM each time. Moreover, the TGI in test [7] and in test [8] was more than 100 µM in each case.

Regarding `CC1OC(OC2C(CO)OC(O[C@H]3CC[C@@]4(C)C(=CC[C@H]5[C@@H]6C[C@@H]7O[C@]8(CC[C@@H](C)CN8)[C@@H](C)[C@@H]7[C@@]6(C)CC[C@@H]54)C3)C(O)C2O)C(O)C(O)C1O` (some centres not stated), the TGI in [1], in test [2], in [3], in test [4], in test [9] and in test [5] was more than 100 µM throughout. The TGI in test [6], in test [7] and in [8] was more than 100 µM in each case.

Consider `CCOC(=O)/C(C#N)=C1/C(O)=C(C(=O)OC)C(C(=O)OC)=C1C(=O)OC`, for which the TGI in [1], in test [2], in test [3], in test [4], in test [9] and in test [5] was more than 100 µM throughout. The TGI in test [6], in [7] and in test [8] was more than 100 µM in each case.

On to `Cc1cc2c(c3oc(C4(C)OC4C4OC4C)cc(=O)c13)C(=O)c1c(O)c(C3CC(C)(N(C)C)C(O)C(C)O3)cc(C3CC(N(C)C)C(O)C(C)O3)c1C2=O` (configuration not stated), for which the GI50 in test [1] was less than 1e-05 µM; in [10], 0.000251 µM; in [8] it was 0.00027 µM. In addition, the TGI in test [3] is 8.08e-05 µM and 0.000153 µM; in test [4], 0.00312 µM and 0.000772 µM; in test [5], 0.00277 µM and 0.000596 µM; in test [6] it was 0.00016 µM and 0.000228 µM; in [8] it was 0.0116 µM and 0.0501 µM.

For the compound `O=S(O)CCCSSc1ccccc1`, the TGI in test [1] was more than 100 µM; in [2] it was more than 100 µM; in [3] it was more than 100 µM; in test [4] it was more than 100 µM; in [9] it was 42.4 µM; in [5], more than 100 µM. Moreover, the TGI in test [6] and in test [8] was more than 100 µM throughout.

Consider `CNC(=O)c1cccc2c(Nc3ccc(NS(C)(=O)=O)cc3OC)c3cccc(C)c3nc12`, for which the TGI was 0.816 µM in test [1]; 0.927 µM in test [2]; 0.322 µM in test [3]; 10.6 µM in test [4]; 2.51 µM in test [9]; 10.9 µM in [5]. Further, the TGI in test [6] amounted to 1.38 µM; in test [7], 0.0552 µM; in [8], 8.2 µM.

`CCOc1ccccc1NC(=O)CCc1n[nH]c(=S)o1`: the TGI in test [2], in test [3], in [4], in test [9], in test [5] and in test [6] was more than 100 µM each time. Also, the TGI in test [7] and in test [8] was more than 100 µM in each case.

In the case of `O=C1CC(O)(c2ccccc2)C(c2ccccc2)=C1c1ccccc1` (configuration not stated), the TGI was more than 100 µM in [1]; more than 100 µM in [2]; more than 100 µM in test [3]; more than 100 µM in [4]; 54.1 µM in test [9]; more than 100 µM in test [5]. Further, the figures for the TGI in test [6], in test [7] and in test [8] were more than 100 µM, 56.3 µM and more than 100 µM, respectively.

For the compound `CCOC(=O)c1ccc(NC(=O)SCCC(=O)O)cc1`, the TGI in [1], in [2], in [3], in [4], in [5] and in [6] was more than 100 µM in each case. Besides, the TGI in test [7] and in test [8] was more than 100 µM each time.

Regarding `COC(=O)c1ccc(Cl)cc1NC(=O)C1CCCCC1`, the TGI in test [2], in [3], in [4], in [9], in test [5] and in test [8] was more than 100 µM each time.

On to `CCC[CH2][Sn]1([CH2]CCC)[O]C(=O)c2ccc(C)cc2[O]1`, for which the GI50 in test [1] was 1.77 µM; in test [2], 0.511 µM; in test [3], 0.404 µM; in test [4] it was 0.316 µM; in test [9], 0.113 µM; in test [5], 0.412 µM. The GI50 in test [6] was 0.437 µM; in test [7], 0.273 µM; in test [8] it was 0.297 µM. The TGI in [1] came to 4.12 µM; in test [2] it was 1.77 µM; in test [3], 1.42 µM; in test [4] it was 1.49 µM; in [9], 0.239 µM; in [5], 1.45 µM. Further, the TGI was determined as 1.57 µM in test [6], 1.01 µM in [7] and 0.766 µM in test [8].

In the case of `OC1C2CCC1C1C3C=CC(C3)C21` (configuration not stated), the TGI in test [1], in test [3], in [4], in test [9], in test [5] and in test [6] was more than 100 µM throughout. The TGI in test [7] and in [8] was more than 100 µM throughout.
